In patent US8354128B2, “Blackberry leaf extract as an active ingredient against skin irritations and inflammations” (Symrise AG, priority 2005, dated 2013):

Test system: IL-1 alpha biosynthesis in human skin cells (HaCaT keratinocytes)
Assay: Anti-interleukin-1alpha assay: IL-1 alpha biosynthesis in A23187-stimulated HaCaT keratinocytes, ELISA of cell lysate
Type: cell-based
Settings: vs stimulated control (0.2 μM A23187, 6 h)
Description: Since interleukin-1 alpha (IL-1 alpha) is a central inflammatory mediator in the skin, the inhibiting effect of the blackberry leaf extract on IL-1 alpha biosynthesis in human skin cells (HaCaT keratinocytes) was investigated. The cells are disseminated in a 96-well microtitre plate (MTP) on the previous day. On the day of the experiment, the test substance solutions are applied in medium in three different concentrations as a triple determination and incubated for 60 min at 37° C. and 5% CO2. Cellular IL-1 alpha biosynthesis is then stimulated by the addition of 0.2 μM A23187 calcium ionophore and the solutions are incubated for a further 6 h. The supernatant is drawn off and the cells undergo lysis through the addition of 1% Triton X 100. The IL-1 alpha in the cell lysate is quantified in an ELISA (human IL-1 alpha ELISA kit, EH2IL1A, Endogen).
The results set out below were obtained from two independent experiments. IL-1 alpha inhibition was calculated in comparison to the stimulated control.

C[C@@H]1C[C@H]2[C@@H]3CCC4=CC(=O)C=C[C@]4(C)[C@@]3(F)[C@@H](O)C[C@]2(C)[C@@]1(O)C(=O)CO [Dexamethasone]
inhibition at 0.01 µM (0.01 μM dexamethasone): 28.8%
inhibition at 0.1 µM (0.1 μM dexamethasone): 37.7%
inhibition at 1 µM (1 μM dexamethasone): 44.7%
